Reference: PubChem BioAssay (NCI)
Several values for one entry are separate records, joined by “and”; a condition that tells them apart may be missing. Equal entries are not always repeated.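 Method: 48-hour compound exposure of cells in 96-well plates, five concentrations, linear interpolation of endpoints. GI50 is the concentration that inhibits growth by half. At the TGI there is no net growth.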

What was measured:
Assay in all cases: NCI tumour cell line growth inhibition, 48 h
DLD-1 colon = tested on: DLD-1 colon
EKVX NSCLC = tested on: EKVX NSCLC
HCT-15 colon = tested on: HCT-15 colon
KM12 colon = tested on: KM12 colon
KM20L2 colon = tested on: KM20L2 colon
MALME-3M melanoma = tested on: MALME-3M melanoma
NCI-H522 lung = tested on: NCI-H522 lung
SF-295 CNS = tested on: SF-295 CNS
SNB-75 CNS = tested on: SNB-75 CNS
U251 CNS = tested on: U251 CNS

| SMILES | GI50 (DLD-1 colon) [µM] | TGI (DLD-1 colon) [µM] | GI50 (EKVX NSCLC) | TGI (EKVX NSCLC) [µM] | GI50 (HCT-15 colon) [µM] | TGI (HCT-15 colon) | GI50 (KM12 colon) | TGI (KM12 colon) | GI50 (KM20L2 colon) [µM] | TGI (KM20L2 colon) [µM] | GI50 (MALME-3M melanoma) | TGI (MALME-3M melanoma) | GI50 (NCI-H522 lung) | TGI (NCI-H522 lung) | GI50 (SF-295 CNS) | TGI (SF-295 CNS) | GI50 (SNB-75 CNS) | TGI (SNB-75 CNS) | GI50 (U251 CNS) | TGI (U251 CNS) |
| --- | --- | --- | --- | --- | --- | --- | --- | --- | --- | --- | --- | --- | --- | --- | --- | --- | --- | --- | --- | --- |
| O=C(O)C1(C(=O)O)CCC1.[NH2-].[NH2-].[Pt+2] | 206 | > 237 | 194 µM and > 250 µM | > 250 | > 250 | > 250 µM | 218 µM and > 250 µM | > 250 µM | 212 | > 235 | 72.2 µM and 107 µM | 180 µM and 192 µM | 54.9 µM and 95.7 µM | 145 µM and 190 µM | 63.1 µM and 111 µM | 236 µM and > 250 µM | 108 µM and > 114 µM | 247 µM and > 250 µM | 67.2 µM and 162 µM | 183 µM and > 250 µM |
| O=C(c1ccccc1)C1OC12C(=O)Nc1c(Cl)cc(Cl)cc12 (centres undefined) | – | 45.7 | – | > 100 | – | > 70 µM | – | > 100 µM | – | > 100 | – | > 100 µM | – | 34.6 µM | – | > 100 µM | – | 29.5 µM | – | > 100 µM |
| CCC/C(=N\NC(=S)N1CC2CCC(CC2)C1)c1ccccn1 | – | 3.33 | 0.186 µM | – | – | 0.716 µM and 2.91 µM | 0.0382 µM | 0.631 µM and 1.32 µM | 0.0165 | – | – | 2.76 µM and 1.99 µM | – | 0.738 µM | 0.114 µM | 1.2 µM | 0.595 µM | 3.21 µM and 2.18 µM | 0.142 µM | 0.627 µM and 1.38 µM |
| CC12CCC3(OCCO3)C(OC(=O)c3ccccc3)=C1CCC21OCCO1 (centres undefined) | – | > 100 | – | > 100 | – | > 100 µM | – | > 100 µM | – | > 100 | – | > 100 µM | – | > 100 µM | – | > 100 µM | – | > 100 µM | – | > 100 µM |
| CCC[CH2][Sn]1([CH2]CCC)[O]CC(CN(C)Cc2ccccc2)[O]1 (centres undefined) | 12.3 | 26.1 | 10.7 µM | 27.3 | 8.29 | 20.3 µM | 13.9 µM | 26.8 µM | 12 | 26 | 2.72 µM | 9.21 µM | 1.94 µM | 4.61 µM | 9.13 µM | 22.4 µM | 3.47 µM | 16.2 µM | 5.75 µM | 17.8 µM |
| C[C@]12CC/C(=N\O)C=C1CC[C@@H]1C2CC[C@@]2(C)C1CC[C@@H]2OC1CCCCO1 (some centres undefined) | – | > 100 | – | 31.9 | – | 43.2 µM | – | 33.2 µM | – | 30.4 | – | 41.4 µM | – | 34.7 µM | – | 35.8 µM | – | 33.2 µM | – | 32.4 µM |
| O=c1ncc(F)cn1C1OC(CO)C(O)C1O (centres undefined) | – | > 100 | – | > 100 | – | > 100 µM | – | > 51.2 µM | – | > 70.6 | – | > 51.5 µM | – | > 70.2 µM | – | > 100 µM | – | > 65.1 µM | – | > 56.6 µM |
| CC(Nc1ccc(S(=O)(=O)N=C(N)N)cc1)c1c2ccccc2nc2ccccc12 (centres undefined) | – | > 100 | – | > 100 | – | > 100 µM | – | > 100 µM | – | > 100 | – | 65.6 µM | – | 38 µM | – | > 100 µM | – | 79.7 µM | – | > 100 µM |
| O=c1c(Br)cc2nc3ccccc3sc-2c1Br | – | > 100 | – | > 100 | – | > 100 µM | – | > 100 µM | – | > 100 | – | > 100 µM | – | 36.2 µM | – | > 100 µM | – | > 100 µM | – | > 100 µM |
| O=C(O)CCC(N=Cc1nc(-c2ccccc2)oc1O)C(=O)O (centres undefined) | – | > 100 | – | > 100 | – | > 100 µM | – | > 100 µM | – | > 100 | – | > 100 µM | – | > 100 µM | – | > 100 µM | – | > 100 µM | – | > 100 µM |
